# US12635693B2, “Activated ferrate compositions and methods” (THE TEXAS A&M UNIVERSITY SYSTEM, priority 2020, dated 2026)
# Assay: Removal (oxidation) of Carbamazepine (CBZ) by ferrate with or without amino acids, HPLC
# Conditions: [ferrate]=100.0 μM
# Method: (Experimental conditions: [CBZ]=5.0 μM, [ferrate]=100.0 μM, [amino acid]=100.0 μM, pH 9.0 (10.0 mM borate buffer), reaction time=1 min).
# After certain reaction time, a 20.0 μL NH2OH solution (1 M, [NH2OH]: [ferrate]=10.0) was added to quench the reactions. Samples were transferred into high performance liquid chromatography (HPLC) vials and subsequently analyzed using the HPLC method. Each treatment was performed with triplicates and the mean removal values were reported.
# Preliminary experiments were conducted to see the influence of amino acids (100.0 μM) on removal of CBZ (5.0 μM) by ferrate (100.0 μM) at pH 9.0 (10.0 mM borate buffer) after 1 min of oxidation. In these experiments, the solution of selected amino acids (FIG. 1) was mixed with CBZ, followed by addition of ferrate.
Structure (SMILES),"removal of CBZ (ferrate only (without proline), [CBZ]=5.0 μM, pH 9.0 (10.0 mM borate buffer), 80 min)","oxidation of CBZ (molar ratio of proline to ferrate 1.0, within 90 s, pH 9.0)"
[O]=[Fe](=[O])([O-])[O-] [ferrate],70%,–
O=C(O)[C@@H]1CCCN1 [proline],–,100%
